Test results taken from PubChem BioAssay AID180 (DTP/NCI, 2004).
Where “and” joins values, the source holds several entries; their conditions need not be identical. Equal values may be shown once. Non-standard residues stand in square brackets, D forms with d. Residues, ends and D or L forms follow the SMILES beside them. ξ: configuration not given here. Ac5c = NC1(C(=O)O)CCCC1; ξS = NC(CO)C(=O)O

Tested on: BDF1 mice, Adenocarcinoma 755 s.c., tumor weight T/C
Experiment: NCI In Vivo Anticancer Drug Screen. Data for tumor model Adenocarcinoma 755 (subcutaneous) in B6D2F1 (BDF1) mice
Conditions: endpoint: mean tumor weight, higher = larger tumour
Experimental: The antitumor activity of compounds was measured in mice bearing transplantable tumors. Survival or tumor size were measured and the results are expressed as the measurement made in the treated group (T) divided by the measurement made in the vehicle treated control group (C). The tumor model used in this assay is Adenocarcinoma 755 (subcutaneous) in B6D2F1 (BDF1) mice

[1] = dose: 100.0 mg/kg/injection, schedule: Q01DX011 (ip), vehicle: carboxymethylcellulose (CMC)
[2] = dose: 100.0 mg/kg/injection, schedule: Q01DX011 (ip), vehicle: saline
[3] = dose: 200.0 mg/kg/injection, schedule: Q01DX011 (ip), vehicle: carboxymethylcellulose (CMC)
[4] = dose: 200.0 mg/kg/injection, schedule: Q01DX011 (ip), vehicle: other
[5] = dose: 200.0 mg/kg/injection, schedule: Q01DX011 (ip), vehicle: saline
[6] = dose: 20.0 mg/kg/injection, schedule: Q01DX011 (ip), vehicle: methylcellulose (MC)
[7] = dose: 125.0 mg/kg/injection, schedule: Q01DX011 (sc), vehicle: steriod suspending solution
[8] = dose: 500.0 mg/kg/injection, schedule: Q01DX011 (sc), vehicle: steriod suspending solution
[9] = dose: 1000.0 mg/kg/injection, schedule: Q01DX011 (sc), vehicle: steriod suspending solution

With NC(CO)C(=O)NC1(C(=O)O)CCCC1 (stereo not drawn) (H-[ξS]-[Ac5c]-OH) the T/C (dose: 45.0 mg/kg/injection, schedule: Q01DX011 (ip), vehicle: carboxymethylcellulose (CMC)) was 62 % of control, the T/C (dose: 90.0 mg/kg/injection, schedule: Q01DX011 (ip), vehicle: carboxymethylcellulose (CMC)) was 12 % of control and the T/C (dose: 180.0 mg/kg/injection, schedule: Q01DX011 (ip), vehicle: carboxymethylcellulose (CMC)) was 5 % of control.
With Oc1ccc2ccccc2c1N=Nc1ccc(Cl)cc1 the T/C (dose: 3.1 mg/kg/injection, schedule: Q01DX011 (ip), vehicle: other) was 15 % of control, the T/C (dose: 6.25 mg/kg/injection, schedule: Q01DX011 (ip), vehicle: other) was 108 % of control and the T/C (dose: 12.5 mg/kg/injection, schedule: Q01DX011 (ip), vehicle: other) was 91 % of control and 84 % of control. The T/C (dose: 25.0 mg/kg/injection, schedule: Q01DX011 (ip), vehicle: other) was 56 % of control and 62 % of control, the T/C (dose: 50.0 mg/kg/injection, schedule: Q01DX011 (ip), vehicle: carboxymethylcellulose (CMC)) was 50 % of control and the T/C [1] was 40 % of control. The T/C (dose: 100.0 mg/kg/injection, schedule: Q01DX011 (ip), vehicle: other) was 24 % of control and 49 % of control, the T/C [2] was 81 % of control and the T/C [3] was 34 % of control. For the same molecule, the T/C [4] was 25 % of control, the T/C [5] was 38 % of control and the T/C (dose: 400.0 mg/kg/injection, schedule: Q01DX011 (ip), vehicle: carboxymethylcellulose (CMC)) was 36 % of control. The T/C (dose: 400.0 mg/kg/injection, schedule: Q01DX011 (ip), vehicle: other) was 14 % of control and 24 % of control, the T/C (dose: 400.0 mg/kg/injection, schedule: Q01DX011 (ip), vehicle: saline) was 28 % of control and the T/C (dose: 800.0 mg/kg/injection, schedule: Q01DX011 (ip), vehicle: carboxymethylcellulose (CMC)) was 16 % of control. The T/C (dose: 800.0 mg/kg/injection, schedule: Q01DX011 (ip), vehicle: other) was 6 % of control and the T/C (dose: 1200.0 mg/kg/injection, schedule: Q01DX011 (ip), vehicle: other) was 9 % of control.
Fc1cccc(CSc2ncnc3c2ncn3C2CCCCO2)c1 (stereo not drawn) was tested, and the T/C [6] was 13 % of control and the T/C (dose: 65.0 mg/kg/injection, schedule: Q01DX011 (ip), vehicle: methylcellulose (MC)) was 1 % of control.
With ClCCn1cnc2c(SCc3ccccc3Cl)ncnc21 the T/C (dose: 0.5 mg/kg/injection, schedule: Q01DX011 (ip), vehicle: other) was 91 % of control, the T/C (dose: 0.5 mg/kg/injection, schedule: Q01DX011 (oral), vehicle: other) was 74 % of control and the T/C (dose: 1.0 mg/kg/injection, schedule: Q01DX011 (ip), vehicle: other) was 84 % of control. The T/C (dose: 2.0 mg/kg/injection, schedule: Q01DX011 (ip), vehicle: other) was 42 % of control and 47 % of control, the T/C (dose: 2.0 mg/kg/injection, schedule: Q01DX011 (oral), vehicle: other) was 109 % of control and the T/C (dose: 4.0 mg/kg/injection, schedule: Q01DX011 (oral), vehicle: other) was 75 % of control and 81 % of control. The T/C (dose: 8.0 mg/kg/injection, schedule: Q01DX011 (ip), vehicle: other) was 3 % of control, the T/C (dose: 8.0 mg/kg/injection, schedule: Q01DX011 (oral), vehicle: other) was 25 % of control and 32 % of control and the T/C (dose: 15.0 mg/kg/injection, schedule: Q01DX011 (oral), vehicle: other) was 5 % of control and 13 % of control. For the same molecule, the T/C (dose: 30.0 mg/kg/injection, schedule: Q01DX011 (oral), vehicle: other) was 1 % of control and the T/C [1] was 3 % of control.
For CC(=O)OCC(=O)[C@@]1(O)CC[C@H]2[C@@H]3C[C@H](C)C4=CC(=O)CC[C@]4(C)[C@H]3[C@@H](O)C[C@@]21C, the T/C (dose: 2.75 mg/kg/injection, schedule: Q01DX011 (sc), vehicle: steriod suspending solution) was 73 % of control, the T/C (dose: 5.5 mg/kg/injection, schedule: Q01DX011 (sc), vehicle: steriod suspending solution) was 55 % of control and 71 % of control and the T/C (dose: 22.0 mg/kg/injection, schedule: Q01DX011 (sc), vehicle: water) was 19 % of control. The T/C (dose: 44.0 mg/kg/injection, schedule: Q01DX011 (sc), vehicle: steriod suspending solution) was 42 % of control, the T/C (dose: 44.0 mg/kg/injection, schedule: Q01DX011 (sc), vehicle: water) was 14 % of control and 20 % of control and the T/C (dose: 87.0 mg/kg/injection, schedule: Q01DX011 (sc), vehicle: steriod suspending solution) was 50 % of control. The T/C (dose: 87.5 mg/kg/injection, schedule: Q01DX011 (sc), vehicle: water) was 11 % of control and 15 % of control, the T/C (dose: 175.0 mg/kg/injection, schedule: Q01DX011 (sc), vehicle: steriod suspending solution) was 25 % of control and the T/C (dose: 175.0 mg/kg/injection, schedule: Q01DX011 (sc), vehicle: water) was 3 % of control and 4 % of control.
For CSc1nc(N)cc(=O)n1C, the T/C (dose: 50.0 mg/kg/injection, schedule: Q01DX011 (ip), vehicle: saline) was 100 % of control, the T/C [2] was 63 % of control and the T/C [5] was 98 % of control.
CO[C@@H]1[C@@H](OC2OC(C)C(OC3CC(C)(O)C(OC(=O)CC(C)C)C(C)O3)C(N(C)C)C2O)[C@@H](CC=O)C[C@@H](C)C(=O)/C=C/C2O[C@H]2C[C@@H](C)OC(=O)C[C@H]1OC(C)=O (stereo partly drawn) was tested, and the T/C [4] was 66 % of control, the T/C (dose: 250.0 mg/kg/injection, schedule: Q01DX011 (ip), vehicle: other) was 60 % of control and 63 % of control and the T/C (dose: 300.0 mg/kg/injection, schedule: Q01DX011 (ip), vehicle: other) was 24 % of control and 33 % of control. The T/C (dose: 350.0 mg/kg/injection, schedule: Q01DX011 (ip), vehicle: other) was 45 % of control.
C[C@]12C=CC(=O)C=C1CC[C@@H]1[C@@H]2CC[C@]2(C)OC(=O)CC[C@@H]12 was tested, and the T/C [7] was 80 % of control, the T/C (dose: 250.0 mg/kg/injection, schedule: Q01DX011 (sc), vehicle: steriod suspending solution) was 77 % of control and the T/C [8] was 109 % of control. The T/C [9] was 75 % of control.
CN(C)[C@@H]1C(=O)C(C(=O)NCN(CCCl)CCCl)=C(O)[C@@]2(O)C(=O)C3=C(O)c4c(O)cccc4[C@@](C)(O)[C@H]3C[C@@H]12 was tested, and the T/C (dose: 0.5 mg/kg/injection, schedule: Q01DX011 (ip), vehicle: methylcellulose (MC)) was 111 % of control, the T/C (dose: 5.0 mg/kg/injection, schedule: Q01DX011 (ip), vehicle: methylcellulose (MC)) was 98 % of control and the T/C (dose: 10.0 mg/kg/injection, schedule: Q01DX011 (ip), vehicle: methylcellulose (MC)) was 44 % of control. For the same molecule, the T/C (dose: 15.0 mg/kg/injection, schedule: Q01DX011 (ip), vehicle: saline) was 37 % of control and 60 % of control, the T/C [6] was 35 % of control and the T/C (dose: 60.0 mg/kg/injection, schedule: Q01DX011 (ip), vehicle: saline) was 36 % of control.
With Nc1ncnc2c1nc(Br)n2C1OC(CO)C(O)C1O (stereo not drawn) the T/C (dose: 30.0 mg/kg/injection, schedule: Q01DX011 (ip), vehicle: carboxymethylcellulose (CMC)) was 117 % of control and the T/C (dose: 120.0 mg/kg/injection, schedule: Q01DX011 (ip), vehicle: carboxymethylcellulose (CMC)) was 109 % of control.
With C=CCC1(CC)C(=O)NC(=O)NC1=O the T/C (dose: 10.0 mg/kg/injection, schedule: Q01DX011 (ip), vehicle: carboxymethylcellulose (CMC)) was 83 % of control, the T/C (dose: 22.0 mg/kg/injection, schedule: Q01DX011 (ip), vehicle: methylcellulose (MC)) was 53 % of control and the T/C (dose: 25.0 mg/kg/injection, schedule: Q01DX011 (ip), vehicle: methylcellulose (MC)) was 112 % of control. The T/C (dose: 42.0 mg/kg/injection, schedule: Q01DX011 (ip), vehicle: methylcellulose (MC)) was 59 % of control, the T/C (dose: 50.0 mg/kg/injection, schedule: Q01DX011 (ip), vehicle: methylcellulose (MC)) was 94 % of control and 79 % of control and the T/C (dose: 85.0 mg/kg/injection, schedule: Q01DX011 (ip), vehicle: methylcellulose (MC)) was 23 % of control. For the same molecule, the T/C (dose: 100.0 mg/kg/injection, schedule: Q01DX011 (ip), vehicle: methylcellulose (MC)) was 61 % of control and 66 % of control, the T/C (dose: 170.0 mg/kg/injection, schedule: Q01DX011 (ip), vehicle: carboxymethylcellulose (CMC)) was 49 % of control and the T/C (dose: 170.0 mg/kg/injection, schedule: Q01DX011 (ip), vehicle: methylcellulose (MC)) was 4 % of control. The T/C [3] was 83 % of control and the T/C (dose: 200.0 mg/kg/injection, schedule: Q01DX011 (ip), vehicle: methylcellulose (MC)) was 27 % of control and 42 % of control.
In the case of CCC(=O)O[C@H]1CC[C@H]2[C@@H]3CC[C@H]4CC(=O)[C@H](C)C[C@]4(C)[C@H]3CC[C@]12C, the T/C (dose: 44.13 mg/kg/injection, schedule: Q01DX011 (sc), vehicle: steriod suspending solution) is reported as 109 % of control and 115 % of control, the T/C (dose: 88.25 mg/kg/injection, schedule: Q01DX011 (sc), vehicle: steriod suspending solution) is reported as 156 % of control and the T/C [7] is reported as 101 % of control. The T/C (dose: 353.0 mg/kg/injection, schedule: Q01DX011 (sc), vehicle: steriod suspending solution) was 154 % of control, the T/C [8] was 176 % of control and the T/C [9] was 124 % of control.
